From patent publication US20150258192A1, “COMPOSITIONS AND METHODS FOR PREVENTING OR TREATING CHRONIC LUNG ALLOGRAFT DYSFUNCTION (CLAD) AND IDIOPATHIC PULMONARY FIBROSIS (IPF)” (priority 2014, published 2015)
No end group written: not given here.

Legend:
[1] = system: bleomycin-induced lung fibrosis in C57BL/6 mice; assay: Bleomycin mouse model of pulmonary fibrosis (IPF treatment model); type: in vivo; conditions: for lung architecture and collagen distribution (H&E, Masson's trichrome), day 28: daily day 14-28 post bleomycin
Protocol: A mouse model of pulmonary fibrosis was generated by administering 0.025 U of bleomycin/PBS intratracheally to C57BL/6 mice. […] At 21 day post bleomycin delivery (for prevention model) or 28 post bleomycin delivery (for treatment model), groups of mice were sacrificed with a sodium pentobarbital injection (120 mg/kg) and the chest cavity was opened. The right mainstem bronchus was ligated and the right lung was removed. The trachea was cannulated and the left lung was perfused with 4% formaldehyde at 21 cm H2O pressure. The tissue blocks then were embedded in paraffin, and […] sections were prepared for staining. Sections from each animal were stained with hematoxylin and eosin (H&E) to visualize cells or with Masson's Trichrome staining to highlight collagen deposition. […] Stained sections were mounted onto a labeled glass slide with organic mounting medium.
The classic bleomycin model, as depicted in FIG. 10, has been used widely in the literature in the pre-fibrotic stage to test efficacy of any intervention.
More specifically, fibrotic loci in the lungs were induced by delivering intratracheally about 0.025 U of bleomycin (dissolved in PBS) to C57BL/6 mice. […] Mice were sacrificed with a sodium pentobarbital injection (120 mg/kg) and the chest cavity was opened. The right mainstem bronchus was ligated and the right lung is removed. The trachea was cannulated and the left lung was perfused with 4% formaldehyde at 21 cm H2O pressure. The tissue blocks then were embedded in paraffin, and […] sections were prepared, and stained with hematoxylin and eosin (H&E; for pathological examination) or Masson's Trichrome (for collagen staining)
Next, collagen deposition was determined quantitatively by using the standard hydroxyproline assay with whole left lung. Total collagen (soluble and insoluble) deposition was assessed by analyzing hydroxyproline concentrations in murine lungs day 28 post bleomycin injury.

[2] = system: bleomycin treated wild type (WT) mouse lung; assay: HA content in bleomycin treated mouse lung; conditions: in vivo
[3] = system: primary lung fibroblasts from patients with IPF; assay: Matrigel invasion assay, human IPF fibroblasts; type: cell-based; conditions: MK2i treatment
Protocol: Fibroblasts are critical effector cells in mediating tissue remodeling. […] We have developed a novel model of progressive lung fibrosis based on a cancer metastasis model. […] We hypothesized that fibrotic fibroblasts acquire an invasive phenotype that is essential for progressive fibrogenesis and that CD44 has a critical role in regulating the process. We utilized an assay system in which fibroblasts are evaluated for their ability to spontaneously invade Matrigel, a composite matrix with basement membrane constituents. This assay has been used to analyze the metastatic potential of cancer cells (40).
We have hypothesized that the essential feature of IPF is the development of an invasive fibroblast phenotype that has developed a gene program that facilitates matrix invasion. To determine if the data obtained from the ASMA-HAS2 transgenic mouse model of severe, progressive and destructive fibrosis is relevant to human lung fibrosis, we isolated primary lung fibroblasts from patients with IPF and analyzed their invasive capacity. We found a striking increase in the invasive capacity of IPF fibroblasts compared to fibroblasts isolated from normal lung tissue (FIG. 34).

[4] = system: fibroblasts from human idiopathic pulmonary fibrosis (IPF) lung; assay: HA production of fibroblasts; type: cell-based

Sequence: YARAAARQARAKALARQLGVAA [MMI-0100]
- progression of collagen deposition (hydroxyproline assay, whole left lung), day 28 ([1]; 50 μg/kg/day IP or nebulizer from day 14): significantly arrested further progression
- lung architecture and collagen distribution (H&E, Masson's trichrome), day 28 ([1]; intraperitoneally): rescued
- lung architecture and collagen distribution (H&E, Masson's trichrome), day 28 ([1]; locally applied to the lung (nebulized)): rescued
- hyaluronan (HA) content in lung [2]: reduced
- invasive capacity of IPF fibroblasts [3]: able to inhibit
- HA production [4]: reduced
